# Results: a melting point compilation (Tetko et al.; mined from patent text by program, amines drawn as free bases though some values may be those of a salt)
row,SMILES,melting point [°C]
1,COc1ccc(-c2cc(CN3CCN(CCO)CC3)c(=O)n(CC=Cc3ccc(Cl)cc3)n2)cc1F,133 to 135
2,CC(=O)OC1CCc2c(C#N)cccc21 (stereo not given),65
3,Cc1ccc([N+](=O)[O-])c(C#N)c1C,107 to 108
4,N#CSCCNc1cc(Cl)ccc1[N+](=O)[O-],115 to 116
5,CC(C)(CO)NC(=O)c1cccc(-c2cccc3cc(Cc4cc(F)cc(Cl)c4)sc23)c1,149 to 150
6,Fc1cccc2c1CN(C1=NCCO1)C2,125 to 129
7,CC1CCc2c(C#N)ccc3c(=O)c(C(=O)O)cn1c23 (stereo not given),300
8,COC(=O)C=C1NCC(C)OC1=O (stereo not given),98 to 101
9,CCN(C)c1nc2cc(NC(=O)OC(C)(C)C)ccn2n1,181 to 183
10,Cc1c(CC(=O)O)oc2ccc(Cc3ccccc3)cc12,149 to 150
11,CCN1c2cc(N)ccc2N(C)C(=O)c2cccnc21,193 to 195
12,CCCCCn1c2ccc(C(=S)N3CCCCC3)cc2c2ccc(OC)cc21,116 to 118
13,CCOC(=O)c1cn(C2CC2)c2c(F)c(NCC(O)CO)c(F)cc2c1=O (stereo not given),173 to 175
14,CCOC(=O)c1cc(F)cnc1NCc1ccc(OC)cc1,90
15,CCCOc1ccc(/C=C(\C)C(=O)O)cc1,171
16,CNS(=O)(=O)c1ccc2c(c1)S(=O)(=O)N=C1CCCN12,244 to 247
17,CCN1C(=O)CCC2=C1CCc1cc(F)ccc12,72
18,CCCC(=O)c1cnc2ccsc2c1Nc1ccccc1C(C)C,118 to 120
19,CC(=O)OC1CSC(Oc2cncc(-c3c(F)cc(F)cc3F)c2)C(OC(C)=O)C1OC(C)=O (stereo not given),143
20,CN1CCCC1=NC(=O)Nc1cccc(Br)c1,138 to 149

row,SMILES,melting point [°C]
1,CCOC(=O)c1c(C)nn2c(-c3cccnc3)ccnc12,145 to 146
2,CCCc1c2oc(C(=O)O)cc(=O)c2cc2c(=O)cc(N(C(C)=O)C(C)=O)oc12,267
3,CCOc1ccc(CC2(C)CNCCN2Cc2ccccc2)cc1OCC (stereo not given),94 to 96
4,CCOC(=O)C(=CNc1ccc(F)c(F)c1OCC1CN(Cc2ccccc2)CCN1Cc1ccccc1)C(=O)OCC (stereo not given),109 to 110
5,Cc1ccc(S(=O)(=O)Oc2ccc(S(=O)(=O)c3c(-c4ccccc4)noc3C(C)C)cc2)cc1,148 to 149
6,CNc1nc(-c2cccc(-c3cccc(-c4ccccc4)c3)c2)c2cc(OC)c(OC)cc2n1,193 to 195
7,CCOC(=O)C(=O)c1ccc(OCC(=O)N2CCOCC2)cc1,103 to 106
8,Cc1noc(NS(=O)(=O)c2ccccc2-c2ccc(-c3ncco3)cc2Cn2cccn2)c1C,140 to 146
9,COCc1nc2c3c(ccn2c1C)[C@@H](O)[C@H](O)[C@@H](c1ccccc1)N3,102 to 104
10,CN(C)Cc1nc(C(=O)O)nn1-c1ccc(Cl)cc1C(=O)c1ccccc1,160 to 165
11,COc1c(OCCCC(=O)O)ccc2c1N=C(C=C(O)c1cccnc1)N1CCN=C21,257 to 258
12,COc1ccc(/C=C/S(=O)(=O)CS(=O)(=O)/C=C/c2ccc(OC)c(O)c2)cc1N,148 to 150
13,COc1ccc(Cn2cnc3c(-c4ccco4)nc([N+](=O)[O-])nc32)cc1,182 to 183
14,Nc1cc(-n2ccc(=O)cc2)ccc1[N+](=O)[O-],298 to 303
15,CSc1nc(OCC(F)(F)F)c(C#N)c(N2CCc3ccccc3CC2)n1,108 to 110
16,COc1ccc(CCc2c(Cc3ccccc3)sc3ccccc23)cc1,68 to 70
17,COc1ccc(-c2nc(C(O)C(F)(F)F)[nH]c2-c2ccc(OC)cc2)cc1 (stereo not given),242 to 245
18,CN(C)c1cc(CC(C#N)=CNc2ccccc2)cc(N(C)C)c1N(C)C,179 to 181
19,Cc1cc(C#CCc2ccc3c(c2)C(C)(C)CCC3(C)C)ccc1C(=O)O,149 to 150
20,O=S1(=O)CCN2CCCC(c3ccc(C(F)(F)F)cc3)C2=N1 (stereo not given),226 to 227
